# Experimental data from PubChem BioAssay AID330 (DTP/NCI, 2004).
# Where “and” joins values, the source holds several entries; their conditions need not be identical. Identical values can stand only once. Inconclusive results and toxic doses are left out.
# Test system: P388 leukemia ip, CD2F1 mice, survival T/C
# Assay: NCI In Vivo Anticancer Drug Screen. Data for tumor model P388 Leukemia (intraperitoneal) in CD2F1 (CDF1) mice
# Conditions: endpoint: median survival time, higher = longer survival
# Outline: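 Mice carrying the transplanted tumor received test compound or vehicle. Survival was recorded in each group, and the value is the treated-group measurement divided by that of the vehicle-treated control group.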
# [1] = dose: 60.0 mg/kg/injection, schedule: Q01DX005 (ip), vehicle: saline with Tween-80
# [2] = dose: 120.0 mg/kg/injection, schedule: Q01DX005 (ip), vehicle: saline with Tween-80
# [3] = dose: 240.0 mg/kg/injection, schedule: Q01DX005 (ip), vehicle: saline with Tween-80
# [4] = dose: 50.0 mg/kg/injection, schedule: Q01DX009 (ip), vehicle: saline with Tween-80
# [5] = dose: 100.0 mg/kg/injection, schedule: Q01DX009 (ip), vehicle: saline with Tween-80
# [6] = dose: 200.0 mg/kg/injection, schedule: Q01DX009 (ip), vehicle: saline with Tween-80
# [7] = dose: 50.0 mg/kg/injection, schedule: Q01DX005 (ip), vehicle: saline with Tween-80
# [8] = dose: 100.0 mg/kg/injection, schedule: Q01DX005 (ip), vehicle: saline with Tween-80
# [9] = dose: 200.0 mg/kg/injection, schedule: Q01DX005 (ip), vehicle: saline with Tween-80
# [10] = dose: 50.0 mg/kg/injection, schedule: Q01DX005 (ip), vehicle: Klucel (hydroxypropylcellulose) (HPC)
# [11] = dose: 50.0 mg/kg/injection, schedule: Q01DX009 (ip), vehicle: saline
# [12] = dose: 100.0 mg/kg/injection, schedule: Q04DX003 (ip), vehicle: saline with Tween-80
# [13] = dose: 200.0 mg/kg/injection, schedule: Q04DX003 (ip), vehicle: saline with Tween-80
structure (smiles),measurement,setting,value
COc1c(C)cc([N+](=O)[O-])c(C)c1[N+](=O)[O-],T/C,"dose: 50.0 mg/kg/injection, schedule: Q01DX001 (ip), vehicle: Klucel (hydroxypropylcellulose) (HPC)",92 % of control
same,T/C,"dose: 100.0 mg/kg/injection, schedule: Q01DX001 (ip), vehicle: Klucel (hydroxypropylcellulose) (HPC)",93 % of control
same,T/C,"dose: 200.0 mg/kg/injection, schedule: Q01DX001 (ip), vehicle: Klucel (hydroxypropylcellulose) (HPC)",90 % of control
CC(=O)Nc1ccccc1OC(=O)NC(C)(C)C,T/C,[1],97 % of control
same,T/C,[2],100 % of control
same,T/C,[3],90 % of control
O=C1NC(=O)C2CCC12 (stereo not drawn),T/C,[4],100 % of control
same,T/C,[5],100 % of control
same,T/C,[6],100 % of control
O=C[O-].[NH2-].[NH2-].[NH2-].[NH2-].[NH2-].[O-][Cl+3]([O-])([O-])O.[Ru+8],T/C,"dose: 1.56 mg/kg/injection, schedule: Q04DX003 (ip), vehicle: saline",105 % of control
same,T/C,"dose: 3.13 mg/kg/injection, schedule: Q04DX003 (ip), vehicle: saline",104 % of control
same,T/C,"dose: 6.25 mg/kg/injection, schedule: Q04DX003 (ip), vehicle: saline",124 % of control
CC1=C(c2ccccc2)OS(=O)(=O)CC1N(C)C (stereo not drawn),T/C,[7],99 % of control
same,T/C,[8],99 % of control
same,T/C,[9],98 % of control
O=C(CC(c1ccccc1)C(C(=O)O)c1ccc(Br)cc1)c1ccccc1 (stereo not drawn),T/C,"dose: 12.5 mg/kg/injection, schedule: Q01DX005 (ip), vehicle: Klucel (hydroxypropylcellulose) (HPC)",100 % of control
same,T/C,"dose: 25.0 mg/kg/injection, schedule: Q01DX005 (ip), vehicle: Klucel (hydroxypropylcellulose) (HPC)",90 % of control
same,T/C,[10],89 % of control
CCCN1COC(OCCN(CC)CC)C(C)(C)C1 (stereo not drawn),T/C,[4],108 % of control
same,T/C,[5],113 % of control
same,T/C,[6],107 % of control
NC(=S)N/N=C\C(=O)c1cccc([N+](=O)[O-])c1,T/C,[4],94 % of control
same,T/C,[5],105 % of control
same,T/C,[6],96 % of control
O=S(=O)(C(Br)S(=O)(=O)C(F)(F)C(F)(F)C(F)(F)C(F)(F)F)C(F)(F)C(F)(F)C(F)(F)C(F)(F)F,T/C,"dose: 25.0 mg/kg/injection, schedule: Q01DX001 (ip), vehicle: saline",95 % of control
same,T/C,"dose: 50.0 mg/kg/injection, schedule: Q01DX001 (ip), vehicle: saline",95 % of control
same,T/C,"dose: 100.0 mg/kg/injection, schedule: Q01DX001 (ip), vehicle: saline",100 % of control and 101 % of control
NC(=O)c1cc2c(oc1=O)-c1ccccc1OC2,T/C,[1],98 % of control
same,T/C,[2],95 % of control
same,T/C,[3],95 % of control
c1ccc(N2CCCCCN2c2ccccc2)cc1,T/C,"dose: 25.0 mg/kg/injection, schedule: Q01DX001 (ip), vehicle: saline with Tween-80",100 % of control
same,T/C,"dose: 50.0 mg/kg/injection, schedule: Q01DX001 (ip), vehicle: saline with Tween-80",100 % of control
same,T/C,"dose: 100.0 mg/kg/injection, schedule: Q01DX001 (ip), vehicle: saline with Tween-80",100 % of control
same,T/C,"dose: 200.0 mg/kg/injection, schedule: Q01DX001 (ip), vehicle: saline with Tween-80",92 % of control
Cc1cccc([NH-])n1.Cc1cccc([NH-])n1.Cc1cccc([NH-])n1.Cc1cccc([NH-])n1.[Cl][Rh][Cl],T/C,"dose: 6.25 mg/kg/injection, schedule: Q01DX009 (ip), vehicle: DMSO",101 % of control
same,T/C,"dose: 12.5 mg/kg/injection, schedule: Q01DX009 (ip), vehicle: DMSO",99 % of control
same,T/C,"dose: 25.0 mg/kg/injection, schedule: Q01DX009 (ip), vehicle: DMSO",101 % of control
same,T/C,[11],101 % of control
N=Nc1c(OC(=O)Nc2cccc(Cl)c2)[nH]c2ccccc12,T/C,[4],94 % of control
same,T/C,[5],90 % of control
same,T/C,[6],93 % of control
CC(=O)OCC1OC(n2ccc(=S)[nH]c2=O)C(OC(C)=O)C1OC(C)=O (stereo not drawn),T/C,"dose: 50.0 mg/kg/injection, schedule: Q04DX003 (ip), vehicle: saline with Tween-80",93 % of control
same,T/C,[12],100 % of control
same,T/C,[13],92 % of control
same,T/C,"dose: 400.0 mg/kg/injection, schedule: Q04DX003 (ip), vehicle: saline with Tween-80",102 % of control
COC(=O)C1(C)CCCC2(C)C1CCC13C=C(C(C)C)C(CC1C(=O)O)CC23 (stereo not drawn),T/C,[12],91 % of control
same,T/C,[13],100 % of control
Cc1ccc(S(=O)(=O)CCC(=O)c2ccccc2)cc1,T/C,"dose: 100.0 mg/kg/injection, schedule: Q04DX003 (ip), vehicle: saline",104 % of control
same,T/C,"dose: 200.0 mg/kg/injection, schedule: Q04DX003 (ip), vehicle: saline",100 % of control
same,T/C,"dose: 400.0 mg/kg/injection, schedule: Q04DX003 (ip), vehicle: saline",101 % of control
c1csc(-c2[nH]nc3c2CCc2ccccc2-3)c1,T/C,"dose: 3.75 mg/kg/injection, schedule: Q01DX005 (ip), vehicle: Klucel (hydroxypropylcellulose) (HPC)",122 % of control
same,T/C,"dose: 7.5 mg/kg/injection, schedule: Q01DX005 (ip), vehicle: Klucel (hydroxypropylcellulose) (HPC)",114 % of control
same,T/C,"dose: 15.0 mg/kg/injection, schedule: Q01DX005 (ip), vehicle: Klucel (hydroxypropylcellulose) (HPC)",114 % of control
O=C(NCCCl)N1CCC(CN=c2cc3n(-c4ccc(Cl)cc4)c4ccccc4nc-3cc2Nc2ccc(Cl)cc2)CC1,T/C,"dose: 7.5 mg/kg/injection, schedule: Q01DX005 (ip), vehicle: saline with Tween-80",88 % of control
same,T/C,"dose: 15.0 mg/kg/injection, schedule: Q01DX005 (ip), vehicle: saline with Tween-80",88 % of control
same,T/C,[2],94 % of control
same,T/C,[3],97 % of control
CN(C)[C@@H]1C(=O)C(C(=O)NCN2CCCCC2)=C(O)[C@@]2(O)C(=O)C3=C(O)c4c(O)cccc4[C@@](C)(O)[C@H]3C[C@@H]12,T/C,[7],95 % of control
same,T/C,[8],95 % of control
same,T/C,[9],104 % of control
O=C(O)CC(=O)O.[NH-]C1CCCC([NH-])C1.[Pt+2] (stereo not drawn),T/C,"dose: 12.5 mg/kg/injection, schedule: Q04DX002 (ip), vehicle: saline with Tween-80",157 % of control
same,T/C,"dose: 25.0 mg/kg/injection, schedule: Q04DX002 (ip), vehicle: saline with Tween-80",180 % of control
C=CCOc1ccccc1/C=N/[N+](C)(C)C,T/C,"dose: 12.5 mg/kg/injection, schedule: Q01DX009 (ip), vehicle: saline",100 % of control
same,T/C,"dose: 25.0 mg/kg/injection, schedule: Q01DX009 (ip), vehicle: saline",110 % of control
Cc1[nH][nH]c(=O)c1[N+](=O)[O-],T/C,[4],99 % of control
same,T/C,[5],108 % of control
same,T/C,[6],114 % of control
CCOC(=O)C(Cc1ccc([N+](=O)[O-])cc1)N1C(=O)c2ccccc2C1=O (stereo not drawn),T/C,"dose: 50.0 mg/kg/injection, schedule: Q01DX009 (ip), vehicle: distilled water + Tween-80 + alcohol",98 % of control
same,T/C,"dose: 100.0 mg/kg/injection, schedule: Q01DX009 (ip), vehicle: distilled water + Tween-80 + alcohol",89 % of control
same,T/C,"dose: 200.0 mg/kg/injection, schedule: Q01DX009 (ip), vehicle: distilled water + Tween-80 + alcohol",92 % of control
CCOCC[Se]c1ccccc1,T/C,[11],92 % of control
same,T/C,"dose: 100.0 mg/kg/injection, schedule: Q01DX009 (ip), vehicle: saline",92 % of control
same,T/C,"dose: 200.0 mg/kg/injection, schedule: Q01DX009 (ip), vehicle: saline",91 % of control
CCO/C=C1/N=C(c2ccc(OC)c(OC)c2)OC1=O,T/C,[1],110 % of control
O=C1NC(=O)C2C3CCC(O3)C12 (stereo not drawn),T/C,"dose: 50.0 mg/kg/injection, schedule: Q01DX005 (ip), vehicle: saline",106 % of control and 99 % of control
same,T/C,[1],94 % of control
same,T/C,"dose: 60.0 mg/kg/injection, schedule: Q01DX005 (ip), vehicle: saline",101 % of control
same,T/C,"dose: 100.0 mg/kg/injection, schedule: Q01DX005 (ip), vehicle: saline",106 % of control and 98 % of control
same,T/C,[2],100 % of control
same,T/C,"dose: 120.0 mg/kg/injection, schedule: Q01DX005 (ip), vehicle: saline",102 % of control
same,T/C,[3],106 % of control
same,T/C,"dose: 240.0 mg/kg/injection, schedule: Q01DX005 (ip), vehicle: saline",92 % of control
CCOc1c(N=Nc2ccccc2OC)c(C)nn1C(=S)SC,T/C,"dose: 15.0 mg/kg/injection, schedule: Q01DX005 (ip), vehicle: Klucel + Tween-80",92 % of control
same,T/C,"dose: 30.0 mg/kg/injection, schedule: Q01DX005 (ip), vehicle: Klucel + Tween-80",92 % of control
same,T/C,"dose: 60.0 mg/kg/injection, schedule: Q01DX005 (ip), vehicle: Klucel + Tween-80",90 % of control
CCC1(C(=O)OC)CCc2c(cc(OC)c3ccccc23)C1=O (stereo not drawn),T/C,[10],87 % of control
same,T/C,"dose: 100.0 mg/kg/injection, schedule: Q01DX005 (ip), vehicle: Klucel (hydroxypropylcellulose) (HPC)",87 % of control
same,T/C,"dose: 200.0 mg/kg/injection, schedule: Q01DX005 (ip), vehicle: Klucel (hydroxypropylcellulose) (HPC)",89 % of control
